Data from US20120213826A1, “Use of Pro-Inflammatory Compounds for Promoting Bone Formation” (Imperial Innovations Limited, priority 2009, published 2012).
“Also recorded” adds a separate entry of the source. Read-outs that look alike come from different tables or passages of the source. Values belong to the molecule of their own block, whether it stands above or below them.

Legend:
[1] = system: muscle-derived stromal cells (MDSC); assay: MDSC migration through a transwell membrane; type: cell-based, human; conditions: for migration of MDSC: 8 μm transwell, 36 hours, recombinant cytokine in human serum-containing media (FIG. 27B)
Experimental: Migration of 1×10^4 MDSC through an 8 μm pore transwell membrane over 36 hours, in response to fracture supernatant with the addition of AbTNF-α, AbIL-6 and AbIL-1β. The IgG^1 immunoglobulin was used as the antibody control. B: Migration in response to rhTNF-α, rhIL-6 and rhIL-1β in human serum-containing media. Results represent change in cell number, expressed as a percentage of the supernatant, or media only control. Each experiment was performed 3 times (n=3) using 3 fracture supernatants (in A). Results represent mean of 3 experiments ±SEM. *: P<0.05; **: P<0.01; ***: P<0.001; 1-way ANOVA with Bonferroni's multiple comparison test.
MDSC must be recruited to the fracture site from adjacent muscle. Next we assessed the efficacy of the pro-inflammatory cytokines in attracting MDSC in vitro using a transwell assay. 1×10^4 MDSC were seeded onto a 8 μm transwell membrane in serum free media. Next day, the transwell membrane was added to a well containing 10% human serum-containing media +IL-1β, IL6 and TNFα at the end concentrations shown. At 24 hrs the membrane was cleared of any cells on the seeded side, fixed and stained. IL-1β appeared not promote MDSC chemotaxis.
500 μl serum free media was added to each well of a 24 well plate. 8 μm pore transwell membranes (VWR International Ltd) were then added to the wells. 1×10^4 MDSC in serum free media were added to the upper chamber of each transwell membrane. At 12 hours the serum-free media was replaced with test or control media or supernatant and incubated at 37° C. for 36 hours. The upper chambers were then cleared of cells and cell debris using a cotton bud, in sweeping motions. The membrane was then washed and fixed using 10% neutral buffered formalin for 1 hour. After washing, the membrane was then added to a 1% crystal violet solution for 1 hour. After further washing, the membranes were viewed under light microscopy at 20 times magnification, using an Olympus CKX41 microscope with a QICAM camera, (QIMAGING, GT vision LLC). The number of cells present on the underside of the transwell membrane in any random field was counted 3 times and the mean calculated. Cell migration was calculated against the supernatant or human serum-containing (control) media and the number expressed as a percentage relative to the control media.

[2] = system: muscle-derived stromal cells (MDSC); assay: MDSC proliferation (CellTiter-Glo luminescent cell viability assay); type: cell-based, human; conditions: Example 3; for MDSC proliferation: 1, 3 and 5 days in human serum-containing media ± recombinant human cytokine (FIG. 28); for cell proliferation in excess of the media-only control: recombinant human BMPs, data not shown
Experimental: CellTiter-Glo® luminescent cell viability assay for MDSC in culture with A: TNF-α, B: IL-6 and C: IL-1β. 2.5×10^3 cells were cultured in triplicate for 1, 3 and 5 days in human serum-containing media ± recombinant human cytokine at the concentration indicated. The number of viaBIe cells in culture was determined using the assay, where luminescent signal is directly proportional to the concentration of ATP from viaBIe cells.
In order to test this hypothesis, proliferation of MDSC in human serum-containing media with rhTNF-α, rhIL-6 and rhIL-1β was tested using the CellTiter-Glo® luminescent cell viability assay was used (Promega Corp., Madison, Wis.).
This method assays the number of viaBIe cells in culture, by measuring adenosine triphosphate (ATP), where the luminescent signal is directly proportional to the number of ATP present.

[3] = system: muscle-derived stromal cells (MDSC); assay: Bone nodule formation by MDSC (alizarin red staining); type: cell-based, human; conditions: Example 3; recombinant cytokine at optimal dose for first 3 days, human serum-containing media (FIG. 26E)
Description: (§1) FIG. 26 TNF-α and IL-6 promote osteogenic differentiation of MDSC A-D: ALP quantification assays after culture of 1×10^4 MDSC for 7 days in a 96-well plate in triplicate with: A: fracture supernatant, ±antibody neutralization of BMPs 2/4 7 and to TGF-β. The immunoglobulin isotype controls used included IgG^1 for AbBMP-2/4 and AbTGF-β, and IgG^2B for Ab-BMP-7. B: human serum containing culture medium with the addition of recombinant human BMPs and TGF-β. C: fracture supernatant±antibody neutralization of TNF-α, IL-6 and IL-1β. The IgG^1 immunoglobulin was used as the antibody isotype control. D: human serum-containing culture medium with the addition of recombinant human TNF-α, IL-6 and IL-1β. E: Alizarin red staining for bone nodule formation after culture of 1×10^4 MDSC in human serum-containing media. Recombinant human cytokine at the optimal dose indicated by D, was added for the first 3 days ONLY, and the cells were subsequently cultured in media for 32 days. A representative image from a single well is shown. All experiments were performed 3 times, in triplicate (n=3) using MDSC from 3 donors. Values for A-D represent a mean from 3 experiments ±SEM, using supernatant from 3 donors in A and C. *: P<0.05; **: P<0.01; ***: P<0.001; 1-way ANOVA with Bonferroni's multiple comparison test in A and C and with Dunnett's multiple comparison test against the media only control in B and D.
1×10^4 MDSC were added to wells of a 24-well plate in triplicate. The cells were cultured for 35-40 days in osteogenic media (DMEM with 10% fetal calf serum and 1% penicillin/streptomycin also containing 100 nM dexamethasone (SIGMA), 1 mM β-glycerol phosphate and […] ascorbic acid), supernatant or media containing recombinant cytokines (with one media change per week) the cells were fixed with 2 ml 10% neutral buffered formalin at room temperature for 15 min. The plate was then washed twice with excess PBS. 1 ml filtered 40 mM alizarin red solution (pH 4.1) was added to each well and agitated at room temperature for 30 minutes. The excess dye was then aspirated and the plate washed four times in distilled water with gentle agitation. Finally, the plates were turned upside-down on paper to dry. Bone nodules appeared red under light microscopy. Images were taken at 20 times magnification and performed as above.

[4] = system: muscle-derived stromal cells (MDSC); assay: ALP quantification assay, osteogenic differentiation of cultured MDSC; type: cell-based, human; conditions: for ALP expression (osteogenic differentiation) in cultured MDSC: Example 1, exogenous recombinant human factor added to MDSC culture (FIG. 8, 10, 12); for ALP expression by MDSC: 7 days in human serum-containing media with recombinant human factor (FIG. 26B, 26D)
Description: as §1, with “The” for “FIG. 26 TNF-α and IL-6 promote osteogenic differentiation of MDSC A-D: ALP quantification assays after culture of 1×10^4 MDSC for 7 days in a 96-well plate in triplicate with: A: fracture supernatant, ±antibody neutralization of BMPs 2/4 7 and to TGF-β. The”, “Recombinant human cytokine at the optimal dose indicated by D, was added for the first 3 days ONLY, and the cells were subsequently cultured in media for 32 days.” left out
To investigate the fracture-derived stimulus for osteogenic differentiation of MDSC, fracture supernatants were prepared using human tibial fracture fragments obtained within 24 hours of injury (ethics approval number—COREC No: 07/Q0411/30). […] Bone fragments were obtained from either fractured tibial fragments or non-traumatically cut bone slices. These were then incubated in serum free DMEM+Glutamax media for 24 hours. The supernatant was then filter sterilised to remove any contaminants and cellular debris. MDSC were then cultured in the presence of either control media, osteogenic media, fracture supernatant or non-fracture supernatant for 7 days before lysis and quantification of ALP levels.
1×10^4 human MDSC were added to wells of a 96 well plate in triplicate. At 24 hrs the media was pipetted off and replaced by 200 μl test media. The media was changed every 3 days. At 7 days the media was removed and the cells lysed in 20 μl NP-40 lysis buffer. An ALP quantification assay (WAKO pure chemical Ltd.) was used. Calibration solution from the assay was serially diluted to make concentrations of 0.25, 0.125 and 0.0625 mmol/L. To empty wells, 20 μl of each calibration solution was added. To another, dH2O was added. 100 μl reagent (1 taBIet per 5 ml buffer solution) was added to each well, and incubated at 37° C. for 20 minutes. 80 μl stop solution was then added to each well and the plate was read using an ELISA spectrometer at 405 nm wavelength. The concentration of ALP in the test wells was extrapolated from the standard curve.

[5] = system: murine open tibial fracture; assay: Murine open tibial fracture model, periosteally stripped (histology, CT scans); type: in vivo, C57BI/6 mice; conditions: for fracture healing: 1-MT, 20 μl in PBS at fracture site; for healing of tibial fractures by CT scans: 28 days post injury, local administration at fracture site (TNFα 50 ng/kg and HMGB1 at time of fracture and 24 hr later) (FIG. 19, 30)
Aqueous solubility = type: physicochemical

Molecule: IL-1β: pro-inflammatory cytokine, recombinant human IL-1β
- migration of MDSC ([1]; Example 3): did not appear to promote MDSC migration
- MDSC proliferation [2]: do not promote MDSC proliferation
- bone nodule formation by MDSC [3]: did not stimulate bone nodule formation
- ALP expression (osteogenic differentiation) in cultured MDSC [4]: dose-dependent stimulation of ALP expression
- concentration of peak ALP expression by MDSC ([4]; Example 3, variable between donor cell populations (FIG. 26D)): 100 µg/mL

Molecule: TGF-β
- ALP expression (osteogenic differentiation) in cultured MDSC [4]: promotes osteogenic differentiation
- ALP expression by MDSC ([4]; Example 3): did not induce ALP expression

- aqueous solubility (Aqueous solubility): poorly soluBIe in aqueous solutions
- aqueous solubility (Aqueous solubility; listed as 1MT): poor aqueous solubility
Molecule: Cn1cc(C[C@H](N)C(=O)O)c2ccccc21 [1-MT, 1-methyl tryptophan, reference compound]
- fracture healing ([5]; histology day 14 (FIG. 21)): accelerated fracture healing
- fracture healing ([5]; histology day 14 (FIG. 21), listed as 1-methyl tryptophan): dose dependent acceleration of fracture healing
- healing of tibial fractures by CT scans [5]: trend to improved healing but did not reach statistical significance
- dose of greatest response (maximal dose tested) ([5]; FIG. 21): 500 µg/mL
- concentrations giving accelerated fracture healing ([5]; within the range tested (0.5-5 mg/kg), histology day 14 (FIG. 21)): ≥ 500 µg/mL

Molecule: IL-6: pro-inflammatory cytokine, recombinant human IL-6
- chemotaxis / migration of MDSC ([1]; Example 1, transwell, 10% human serum-containing media, 24 hrs (FIG. 14)): promote chemotaxis of MDSC
- migration of MDSC ([1]; Example 3): chemo attractant for MDSC
- optimal concentration for MDSC migration ([1]; Example 3, transwell, 36 hours (FIG. 27B)): 1 ng/mL
- MDSC proliferation [2]: do not promote MDSC proliferation
- bone nodule formation by MDSC [3]: promoted de novo bone formation
- ALP expression (osteogenic differentiation) in cultured MDSC [4]: dose-dependent stimulation of ALP expression
- ALP expression by MDSC ([4]; Example 3): increased with the dose through the range tested

B1: BMP7: recombinant human bone morphogenetic protein 7 (protein, UniProt P18075 293-431, looked up)
Bone morphogenetic protein 7: STGSKQRSQNRSKTPKNQEALRMANVAENSSSDQRQACKKHELYVSFRDLGWQDWIIAPEGYAAYYCEGECAFPLNSYMNATNHAIVQTLVHFINPETVPKPCCAPTQLNAISVLYFDDSSNVILKKYRNMVVRACGCH
- cell proliferation in excess of the media-only control [2]: did not induce cell proliferation
- ALP expression (osteogenic differentiation) in cultured MDSC [4]: promotes osteogenic differentiation
- ALP expression by MDSC ([4]; Example 3): did not induce ALP expression

B2: BMP4: recombinant human bone morphogenetic protein 4 (protein, UniProt P12644 293-408, looked up)
Bone morphogenetic protein 4: SPKHHSQRARKKNKNCRRHSLYVDFSDVGWNDWIVAPPGYQAFYCHGDCPFPLADHLNSTNHAIVQTLVNSVNSSIPKACCVPTELSAISMLYLDEYDKVVLKNYQEMVVEGCGCR
- cell proliferation in excess of the media-only control [2]: did not induce cell proliferation
- ALP expression by MDSC ([4]; Example 3): did not induce ALP expression

B3: HMGB1: damage associated molecular pattern molecule (alarmin), RAGE ligand protein (protein, UniProt P09429 1-215, looked up)
High mobility group protein B1: MGKGDPKKPRGKMSSYAFFVQTCREEHKKKHPDASVNFSEFSKKCSERWKTMSAKEKGKFEDMAKADKARYEREMKTYIPPKGETKKKFKDPNAPKRPPSAFFLFCSEYRPKIKGEHPGLSIGDVAKKLGEMWNNTAADDKQPYEKKAAKLKEKYEKDIAAYRAKGKPDAAKKGVVKAEKSKKKKEEEEDEEDEEDEEEEEDEEDEDEEEDDDDE
- healing of tibial fractures by CT scans [5]: statistically significantly enhanced healing; also recorded: accelerates fracture healing

B4: IFN-γ: proinflammatory cytokine, recombinant human Interferon-gamma (protein, UniProt P01579 24-161, looked up)
Interferon gamma: QDPYVKEAENLKKYFNAGHSDVADNGTLFLGILKNWKEESDRKIMQSQIVSFYFKLFKNFKDDQSIQKSVETIKEDMNVKFFNSNKKKRDDFEKLTNYSVTDLNVQRKAIHELIQVMAELSPAAKTGKRKRSQMLFRG
- ALP expression (osteogenic differentiation) in cultured MDSC [4]: modest dose-dependent stimulation of osteogenesis
